{"source": "patent US9474755B2", "about": "“GLP-1 receptor modulators” (Receptos, Inc., priority 2014, dated 2016)", "data": [{"molecular_target": "T1, GLP-1R (Homo sapiens, UniProt P43220)", "T1 construct": "host or cells: CRE-bla CHO-K1", "T1 sequence (P43220 24-463)": "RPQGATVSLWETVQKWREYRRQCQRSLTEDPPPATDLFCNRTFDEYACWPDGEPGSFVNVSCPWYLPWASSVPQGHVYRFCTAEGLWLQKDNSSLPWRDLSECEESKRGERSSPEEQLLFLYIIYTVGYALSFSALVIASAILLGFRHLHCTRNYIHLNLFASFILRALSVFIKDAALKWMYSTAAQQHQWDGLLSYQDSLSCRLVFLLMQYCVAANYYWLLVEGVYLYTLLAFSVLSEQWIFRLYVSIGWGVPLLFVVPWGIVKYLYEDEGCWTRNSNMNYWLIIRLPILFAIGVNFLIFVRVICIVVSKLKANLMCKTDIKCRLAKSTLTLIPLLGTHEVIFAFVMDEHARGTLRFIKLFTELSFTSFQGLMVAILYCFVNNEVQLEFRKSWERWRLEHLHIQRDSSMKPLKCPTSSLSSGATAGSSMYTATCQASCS", "T1 sequence (P01275 100-127 partner limits assumed)": "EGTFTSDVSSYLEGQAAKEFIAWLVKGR", "experiment": "EC20 GLP-1(9-36) PAM cAMP Assay: dose response of compound in the presence of fixed concentration of GLP-1(9-36)", "format": "cell-based", "settings": "GLP-1R CRE-bla CHO-K1 cells, in presence of fixed concentration of GLP-1(9-36), 30 min at 37° C.", "method": "EC20 GLP-1(9-36) PAM cAMP Assay: Dose Response of Compound in the Presence of Fixed Concentration of GLP-1 (9-36).\nGLP-1R CRE-bla CHO-K1 cells cultured in growth medium (DMEM-High glucose, 10% dialyzed FBS, 0.1 mM NEAA, 25 mM Hepes, 100 U/mL penicillin/100 μg/mL streptomycin, 5 μg/mL Blasticidin, 600 μg/mL Hygromycin) were trypsinized and plated in suspension into 384 well white flat bottom plates at 5000 cells/well in 12 μL assay buffer (Hanks Balanced Salt solution, 10 mM Hepes, 0.1% BSA, 10 pH 7.4). A 5× compound dose response curve (12-point) was generated in assay buffer containing 1.5 mM IBMX, 4% DMSO. GLP-1(9-36) was diluted to 4.2 μM in assay buffer containing 1.5 mM IBMX and 4% DMSO. The 5× compound dose response was added (3 μL), followed by 0.5 μL of GLP-1(9-36) and cells were incubated for 30 min at 37° C. Direct detection of cAMP was carried out using DiscoveRx HitHunter cAMP kit according to manufacturer's instructions and luminescence was read using a SpectraMax M5 plate reader. Luminescence was converted to total cAMP using a cAMP standard curve and data was analyzed by non-linear regression to determine the EC50 and Emax.", "units": {"EC50": "µM"}, "values": [{"smiles": "CCCC1CCC(C2CC=C(c3cnc(-c4ccc(C[C@H](NC(=O)c5cnn(C(C)(C)C)c5)C(=O)N5CC(C(=O)O)C5)cc4)nc3)CC2)CC1", "note": "(stereo partly shown) [Compound 19]", "EC50": "0.5 to 2.5"}, {"smiles": "CC(C)(C)c1ccc(C(=O)N[C@@H](Cc2ccc(-c3ncc(C4=CCC([C@H]5CC[C@H](C)CC5)CC4)cn3)cc2)C(=O)NS(C)(=O)=O)s1", "note": "(stereo partly shown) [Compound 115]", "EC50": "< 0.5"}, {"smiles": "CCCC1CCC(C2CC=C(c3cnc(-c4ccc(C[C@@H](NC(=O)c5ccc(C(C)(C)C)s5)C(=O)N5CC(C(=O)O)C5)cc4)nc3)CC2)CC1", "note": "(stereo partly shown) [Compound 124]", "EC50": "0.5 to 2.5"}, {"smiles": "CCCC1CCC(C2CCC(c3cnc(-c4ccc(C[C@H](NC(=O)c5ccc(C(C)(C)C)s5)C(=O)N[C@H](C)C(=O)O)cc4)nc3)CC2)CC1", "note": "(stereo partly shown) [Compound 67]", "EC50": "< 0.5"}, {"smiles": "CC[C@H]1CC[C@H](C2CC=C(c3cnc(-c4ccc(C[C@H](NC(=O)c5ccc(OC(C)(C)C)cc5)C(=O)N5CC(C(=O)O)C5)cc4)nc3)CC2)CC1", "note": "(stereo partly shown) [Compound 95]", "EC50": "0.5 to 2.5"}, {"smiles": "CCCC1CCC(C2CC=C(c3cnc(-c4ccc(C[C@H](NC(=O)c5ccc(C(C)(C)C)s5)C(=O)N5CC[C@H](C(=O)O)C5)cc4)nc3)CC2)CC1", "note": "(stereo partly drawn) [Compound 7, (3S)-1-((2S)-2-(5-(tert-butyl)thiophene-2-carboxamido)-3-(4-(5-(4′-propyl-[1,1′-bi(cyclohexan)]-3-en-4-yl)pyrimidin-2-yl)phenyl)propanoyl)pyrrolidine-3-carboxylic acid]", "EC50": "< 0.5"}, {"smiles": "CCCC1CCC(C2CC=C(c3cnc(-c4ccc(C[C@H](NC(=O)c5ccc(CC(C)C)s5)C(=O)N5CC(C(=O)O)C5)cc4)nc3)CC2)CC1", "note": "(stereo partly shown) [Compound 32]", "EC50": "< 0.5"}, {"smiles": "CC(C)(C)c1ccc(C(=O)N[C@@H](Cc2ccc(-c3ncc(C4=CCC([C@H]5CC[C@H](C)CC5)CC4)cn3)cc2)C(=O)N2CC(C(=O)O)C2)s1", "note": "(mixture of isomers) [Compound 44, 1-((S)-2-(5-(tert-butyl)thiophene-2-carboxamido)-3-(4-(5-((1RS,1′r,4′RS)-4′-methyl-[1,1′-bi(cyclohexan)]-3-en-4-yl)pyrimidin-2-yl)phenyl)propanoyl)azetidine-3-carboxylic acid]", "EC50": "< 0.5"}, {"smiles": "C[C@@H](NC(=O)[C@H](Cc1ccc(-c2ncc(C3=CC(C)(C)CC(C)(C)C3)cn2)cc1)NC(=O)c1ccc(C(C)(C)C)s1)C(=O)O", "note": "[Compound 59]", "EC50": "< 0.5"}, {"smiles": "CCCC1CCC(C2CC=C(c3cnc(-c4ccc(C[C@H](NC(=O)c5ccc(C(C)(C)C)s5)C(=O)N[C@@H](CO)C(=O)O)cc4)nc3)CC2)CC1", "note": "(stereo partly shown) [Compound 73]", "EC50": "< 0.5"}, {"smiles": "C[C@@H](NC(=O)[C@H](Cc1ccc(-c2ncc(C3=CCCCC3)cn2)cc1)NC(=O)c1ccc(C(C)(C)C)s1)C(=O)O", "note": "[Compound 54]", "EC50": "5 to 10"}, {"smiles": "CCCC1CCC(C2CC=C(c3cnc(-c4ccc(C[C@H](NC(=O)c5ccc(C(C)(C)C)s5)C(=O)S(C)(=O)=O)cc4)nc3)CC2)CC1", "note": "(stereo partly shown) [Compound 79]", "EC50": "< 0.5"}, {"smiles": "CCCC1CCC(C2CC=C(c3cnc(-c4ccc(C[C@H](NC(=O)c5ccc(C(C)(C)C)s5)C(=O)N[C@H](C)C(=O)O)cc4)nc3)CC2)CC1", "note": "(stereo partly drawn) [Compound 1, ((2S)-2-(5-(tert-butyl)thiophene-2-carboxamido)-3-(4-(5-(4′-propyl-[1,1′-bi(cyclohexan)]-3-en-4-yl)pyrimidin-2-yl)phenyl)propanoyl)-D-alanine]", "EC50": "< 0.5"}, {"smiles": "CCCCCC1CC=C(c2cnc(-c3ccc(C[C@H](NC(=O)c4ccc(C(C)(C)C)s4)C(=O)N4CC(C(=O)O)C4)cc3)nc2)CC1", "note": "(stereo partly shown) [Compound 38]", "EC50": "0.5 to 2.5"}, {"smiles": "C[C@@H](NC(=O)[C@H](Cc1ccc(-c2ncc(C3=CCC(C(F)(F)F)CC3)cn2)cc1)NC(=O)c1ccc(C(C)(C)C)s1)C(=O)O", "note": "(stereo partly shown) [Compound 65]", "EC50": "0.5 to 2.5"}, {"smiles": "CC(C)(C)c1ccc(C(=O)N[C@@H](Cc2ccc(-c3ncc(C4=CCC([C@H]5CC[C@H](C)CC5)CC4)cn3)cc2)C(=O)N2CCC[C@H]2C(=O)O)s1", "note": "(stereo partly shown) [Compound 111]", "EC50": "< 0.5"}, {"smiles": "CC(C)(C)c1ccc(C(=O)N[C@@H](Cc2ccc(-c3ncc(C4=CCC([C@H]5CC[C@H](C)CC5)CC4)cn3)cc2)C(=O)N2CC[C@H](C(=O)O)C2)s1", "note": "(stereo partly shown) [Compound 116]", "EC50": "< 0.5"}, {"smiles": "C[C@@H](NC(=O)[C@H](Cc1ccc(-c2ncc(C3=CCCC3)cn2)cc1)NC(=O)c1ccc(C(C)(C)C)s1)C(=O)O", "note": "[Compound 63]", "EC50": "0.5 to 2.5"}, {"smiles": "CCCC1CCN(C2CC=C(c3cnc(-c4ccc(C[C@H](NC(=O)c5ccc(C(C)(C)C)s5)C(=O)N5CC(C(=O)O)C5)cc4)nc3)CC2)CC1", "note": "(stereo partly shown) [Compound 46]", "EC50": "2.5 to 5"}, {"smiles": "CC[C@H]1CC[C@H](C2CCC(c3cnc(-c4ccc(C[C@H](NC(=O)c5ccc(C(C)(C)C)s5)C(=O)N5CC(C(=O)O)C5)cc4)nc3)CC2)CC1", "note": "(stereo partly shown) [Compound 125]", "EC50": "0.5 to 2.5"}, {"smiles": "CCCC1CCC(C2CC=C(c3cnc(-c4ccc(C[C@H](NC(=O)c5ccc(C(C)(C)C(F)(F)F)cc5)C(=O)N5CC(C(=O)O)C5)cc4)nc3)CC2)CC1", "note": "(stereo partly shown) [Compound 35]", "EC50": "0.5 to 2.5"}, {"smiles": "CCCC1CCC(C2CC=C(c3cnc(-c4ccc(C[C@H](NC(=O)c5ccc(C(C)(C)C)s5)C(=O)N[C@H](Cc5cnc[nH]5)C(=O)O)cc4)nc3)CC2)CC1", "note": "(stereo partly shown) [Compound 78]", "EC50": "0.5 to 2.5"}, {"smiles": "CCCC1CCC(C2CC=C(c3cnc(-c4ccc(CC(NC(=O)c5ccc(C(C)(C)C)s5)C(=O)N5CC(C(=O)O)C5)cc4)nc3)CC2)CC1C", "note": "(stereo not shown) [Compound 85]", "EC50": "< 0.5"}, {"smiles": "C[C@@H](NC(=O)[C@H](Cc1ccc(-c2ncc(C3=CCC([C@H]4CC[C@H](C)CC4)CC3)cn2)cc1)NC(=O)c1ccc(C(C)(C)C)s1)C(=O)O", "note": "(stereo partly shown) [Compound 112]", "EC50": "< 0.5"}, {"smiles": "C[C@@H](NC(=O)[C@H](Cc1ccc(-c2ncc(C3=CCC4(CC3)OCCO4)cn2)cc1)NC(=O)c1ccc(C(C)(C)C)s1)C(=O)O", "note": "[Compound 66]", "EC50": "2.5 to 5"}, {"smiles": "COCC1CCC(C2CC=C(c3cnc(-c4ccc(CC(NC(=O)c5ccc(C(C)(C)C)s5)C(=O)N5CC(C(=O)O)C5)cc4)nc3)CC2)CC1", "note": "(stereo not shown) [Compound 88]", "EC50": "< 0.5"}, {"smiles": "CC(C)(C)c1ccc(C(=O)N[C@@H](Cc2ccc(-c3ncc(C4=CCC(C5CCCCC5)CC4)cn3)cc2)C(=O)N2CC(C(=O)O)C2)s1", "note": "(stereo partly shown) [Compound 77]", "EC50": "< 0.5"}, {"smiles": "COC(=O)C1CC=C(c2cnc(-c3ccc(C[C@H](NC(=O)c4ccc(C(C)(C)C)s4)C(=O)N[C@H](C)C(=O)O)cc3)nc2)CC1", "note": "(stereo partly shown) [Compound 62]", "EC50": "< 0.5"}, {"smiles": "CC(C)(C)c1ccc(C(=O)N[C@@H](Cc2ccc(-c3ncc(C4=CCC(c5ccccc5)CC4)cn3)cc2)C(=O)N2CC(C(=O)O)C2)s1", "note": "(stereo partly shown) [Compound 11]", "EC50": "< 0.5"}, {"smiles": "CCCC1CCC(C2CC=C(c3cnc(-c4ccc(C[C@@H](NC(=O)c5ccc(C(C)(C)C)s5)C(=O)N5CC(C(=O)O)C5)cc4)nc3)CC2)CC1", "note": "(stereo partly drawn) [Compound 81, 1-((2R)-2-(5-(tert-butyl)thiophene-2-carboxamido)-3-(4-(5-(4′-propyl-[1,1′-bi(cyclohexan)]-3-en-4-yl)pyrimidin-2-yl)phenyl)propanoyl) azetidine-3-carboxylic acid]", "EC50": "0.5 to 2.5"}, {"smiles": "CC[C@H]1CC[C@H](C2CC=C(c3cnc(-c4ccc(C[C@H](NC(=O)c5ccc(C(C)(C)C)s5)C(=O)N5CCC[C@H]5C(=O)O)cc4)nc3)CC2)CC1", "note": "(stereo partly shown) [Compound 105]", "EC50": "< 0.5"}, {"smiles": "CC(C)(C)c1ccc(C(=O)N[C@@H](Cc2ccc(-c3ncc(C4CCC(C(C)(C)C)CC4)cn3)cc2)C(=O)N2CC(C(=O)O)C2)s1", "note": "(stereo partly shown) [Compound 41]", "EC50": "5 to 10"}, {"smiles": "C[C@@H](NC(=O)[C@H](Cc1ccc(-c2ncc(C3=CCC(C)(C)CC3)cn2)cc1)NC(=O)c1ccc(C(C)(C)C)s1)C(=O)O", "note": "[Compound 57]", "EC50": "0.5 to 2.5"}, {"smiles": "CCCC1CCC(C2CC=C(c3cnc(-c4ccc(C[C@H](NC(=O)c5ccc(C6CC6)s5)C(=O)N5CC(C(=O)O)C5)cc4)nc3)CC2)CC1", "note": "(stereo partly shown) [Compound 34]", "EC50": "< 0.5"}, {"smiles": "CC1(C)CCC(C2CC=C(c3cnc(-c4ccc(C[C@H](NC(=O)c5ccc(C(C)(C)C)s5)C(=O)N5CC(C(=O)O)C5)cc4)nc3)CC2)CC1", "note": "(stereo partly shown) [Compound 90]", "EC50": "< 0.5"}, {"smiles": "CCCC1CCC(C2CC=C(c3cnc(-c4ccc(C[C@H](NC(=O)c5ccc(C(C)(C)C)s5)C(=O)N5CCC[C@H]5C(=O)O)cc4)nc3)CC2)CC1", "note": "(stereo partly shown) [Compound 8]", "EC50": "< 0.5"}, {"smiles": "CCCC1CCC(C2CC=C(c3cnc(-c4ccc(C[C@H](NC(=O)c5ccc(C6CC6)cc5)C(=O)N5CC(C(=O)O)C5)cc4)nc3)CC2)CC1", "note": "(stereo partly shown) [Compound 24]", "EC50": "< 0.5"}, {"smiles": "CCCC1CCC(C2CC=C(c3cnc(-c4ccc(C[C@H](NC(=O)c5ccc(C(C)C)cc5)C(=O)N5CC(C(=O)O)C5)cc4)nc3)CC2)CC1", "note": "(stereo partly shown) [Compound 13]", "EC50": "< 0.5"}, {"smiles": "CCCC1CCC(C2CC=C(c3cnc(-c4ccc(C[C@H](NC(=O)c5ccc(C(C)(C)C)s5)C(=O)N[C@@H](CCN)C(=O)O)cc4)nc3)CC2)CC1", "note": "(stereo partly shown) [Compound 72]", "EC50": "2.5 to 5"}, {"smiles": "CC[C@H]1CC[C@H](C2CC=C(c3cnc(-c4ccc(C[C@H](NC(=O)c5ccc(C(F)(F)F)cc5)C(=O)N5CC(C(=O)O)C5)cc4)nc3)CC2)CC1", "note": "(stereo partly shown) [Compound 100]", "EC50": "< 0.5"}, {"smiles": "CCCC1CCC(C2CCC(c3cnc(-c4ccc(C[C@H](NC(=O)c5ccc(C(C)C)cc5)C(=O)N5CC(C(=O)O)C5)cc4)nc3)CC2)CC1", "note": "(stereo partly shown) [Compound 12]", "EC50": "2.5 to 5"}, {"smiles": "COC1CCC(C2CC=C(c3cnc(-c4ccc(C[C@H](NC(=O)c5ccc(C(C)(C)C)s5)C(=O)N5CC(C(=O)O)C5)cc4)nc3)CC2)CC1", "note": "(stereo partly shown) [Compound 48]", "EC50": "0.5 to 2.5"}, {"smiles": "C[C@@H](NC(=O)[C@H](Cc1ccc(-c2ncc(C3=CCCC(NC(=O)OC(C)(C)C)C3)cn2)cc1)NC(=O)c1ccc(C(C)(C)C)s1)C(=O)O", "note": "(stereo partly shown) [Compound 69]", "EC50": "2.5 to 5"}]}]}
